From PMC6053504, “Inhibitory Role of the Mud Crab Short Neuropeptide F in Vitellogenesis and Oocyte Maturation via Autocrine/Paracrine Signaling” (Frontiers in Endocrinology, 2018)
pEC50: −log10 of the molar value. Where no end group is shown, it is not given here.

What was measured:
[1] = tested on: denuded oocytes; parameters: method as in 2 sources, one per row (each row's own in cited_ref): ref 76 = [76]; PMID 20382141; doi:10.1016/j.ydbio.2010.03.027; 76. Pang Y Thomas P . Role of G protein-coupled estrogen receptor 1, GPER, in inhibition of oocyte maturation by endogenous estrogens in zebrafish . Dev Biol. ( 2010 ) 342 : 194 – 206 . 10.1016/j.ydbi ||| ref 77 = [77]; PMID 21636738; doi:10.1095/biolreprod.111.091884; 77. Zhou R Tsang AH Lau SW Ge W . Pituitary adenylate cyclase-activating polypeptide (PACAP) and its receptors in the zebrafish ovary: evidence for potentially dual roles of pacap in controlling final; settings: zebrafish, via GPER; cited from earlier work
[2] = biological target: T1, Sp-sNPFR (Scylla paramamosain, UniProt A0A345ZFF5); experiment: Ligand-receptor activation of signaling, dual-luciferase (pCRE-luc) reporter in HEK293T; type: cell-based; settings: HEK293T transiently co-transfected with Sp-sNPFR/pEGFP-N1, pCRE-luc, pRL-TK; incubation 6 h; dual-luciferase read-out (Figure 3B legend: concentration of cAMP determined); nonlinear curve fitting; mean ± SD, three biological replicates
T1 sequence (A0A345ZFF5 1-458): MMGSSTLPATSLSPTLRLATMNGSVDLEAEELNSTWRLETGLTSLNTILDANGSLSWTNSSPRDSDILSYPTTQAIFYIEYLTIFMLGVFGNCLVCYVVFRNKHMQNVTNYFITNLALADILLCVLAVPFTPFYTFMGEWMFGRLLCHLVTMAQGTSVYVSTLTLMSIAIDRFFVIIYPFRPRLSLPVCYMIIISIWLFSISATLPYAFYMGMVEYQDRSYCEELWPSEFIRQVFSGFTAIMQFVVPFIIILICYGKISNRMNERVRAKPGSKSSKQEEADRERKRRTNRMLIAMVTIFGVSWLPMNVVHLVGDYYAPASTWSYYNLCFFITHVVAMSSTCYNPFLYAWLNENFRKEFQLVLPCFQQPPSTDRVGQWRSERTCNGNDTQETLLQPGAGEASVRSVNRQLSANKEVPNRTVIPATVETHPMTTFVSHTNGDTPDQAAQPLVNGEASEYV
Procedure: Human embryonic kidney cell lines (HEK293T) were maintained in high glucose DMEM (Hyclone) supplemented with 10% fetal bovine serum (Gibco), 100 U/mL penicillin and 100 μg/mL streptomycin (Hyclone) at 37°C in a humidified incubator (Thermo) containing 5% CO2. Cells were seeded overnight in 6-well plates and transiently co-transfected with 1 μg of the Sp-sNPFR/pEGFP-N1 plasmid, 0.8 μg of the reporter gene pCRE-luc, and 0.4 μg of internal control gene pRL-TK using 5 μL Lipofectamine 2000 (Invitrogen) reagent following the manufacturer's protocols. Empty pEGFP-N1 plasmid was used for mock transfection.
HEK293T transiently co-transfected with Sp-sNPFR/pEGFP-N1 and dual-luciferase reporter system vectors were grown to 90% confluency in a 24-well plate. Cells were first treated with synthetic Sp-sNPF peptide mixture and the mixture containing 9 synthetic FLPs (GL Biochem, Table 2) at 1 μM each. Further, various concentrations of individual peptides were used to record dose-dependent curves. After incubation for 6 h, ligand-induced changes in luciferase activity were measured by GloMax® 20/20 Luminometer (Promega) with Dual-Luciferase® Reporter Assay System Kit (Promega).
All values are expressed as mean ± SD. Multiple sequence alignment of sNPFR sequences was performed with ClustalX and embellished by LaTEX TexShade ([57]). Data of ligand-receptor assays were analyzed using nonlinear curve fitting (GraphPad Prism 6.0) to obtain activation curves and EC50 values. The mRNA levels of Sp-Vg and Sp-VgR gene were normalized against the internal control β-actin, and the relative expression was calculated using the 2^−ΔΔCt method. Statistical significance was determined using one-way ANOVA followed by Duncan's multiple range tests. All statistical analyses were performed using IBM SPSS Statistics 20.0. Pictures were drawn by GraphPad Prism 6.0 and modified with Adobe Photoshop CS5.

Row | Compound | inhibition of spontaneous oocyte maturation [1] | pEC50 [2]
1 | C[C@]12CC[C@@H]3c4ccc(O)cc4CC[C@H]3[C@@H]1CC[C@@H]2O [E2, Estradiol] | partly inhibited the spontaneous maturation of the denuded oocytes | 
2 | KDARTPALRLRF-NH2 [Sp-sNPF3] |  | 5.07
3 | APPSMRLRF-NH2 [Sp-sNPF1] |  | 5.92
4 | SMPTLRLRF-NH2 [Sp-sNPF2] |  | 5.42
